Measured values: PMC3818835, “What Goes around Comes around-A Comparative Study of the Influence of Chemical Modifications on the Antimicrobial Properties of Small Cyclic Peptides” (Pharmaceuticals, 2013)
Values after ≈ are worked out from the molar mass of the structure shown. Peptide text beside a SMILES is read from it.

Legend:
eukaryotic cells = system: eukaryotic cells; design: method as in PMID 15248771; conditions: cited from earlier work
[1] = Hydrophobicity: retention time tR by reversed phase HPLC; type: physicochemical; conditions: chromatographic, RP-HPLC ProntoSil 300-5-C18-H (250 × 4.6 mm, 5 µm); peptide 1 mg/mL in phase A (0.1% TFA in water); B 0.1% TFA in 80% acetonitrile; linear gradient 5%–95% B over 40 min at 22 °C; used as a measure of hydrophobicity
Experimental: The retention time tR of the cyclic hexapeptides was determined by HPLC on a Jasco LC-2000Plus using a ProntoSil 300-5-C18-H column (250 × 4.6 mm, 5 µm) (Bischoff Chromatography). Peptide concentration was 1 mg/mL in mobile phase A (0.1% TFA in deionized water), mobile phase B consisted of 0.1% TFA in 80% acetonitrile in deionized water. For chromatographic analyses a linear gradient of 5%–95% phase B over 40 min at 22 °C was applied.
To investigate the influence of fluorescent label modification and amino acid substitution on the hydrophobicity/amphipathicity of the cyclic hexapeptide derivatives, we determined the retention time tR by reversed phase HPLC (Figure 2). The method monitors the retention of compounds by the hydrophobic HPLC stationary phase. Differences in tR reflect differences in the effective hydrophobicity of the molecule which is related to the intrinsic hydrophobicity of the individual residues and their ability to form hydrophobic domains for interaction with the HPLC matrix. At the same time, hydrophilic residues will locate at the opposite side of the molecule. Reduction in the size or positioning of cationic residues next to the hydrophobic molecular surface area would reduce amphipathicity. tR-measurements have successfully been applied to characterize amphipathic helices, β-structured peptides and different sets of our small cyclic R-, W-rich peptides.

E. coli DH5α = type: cell-based; conditions: 18 h
Experimental: (§1) The minimal inhibitory concentration (MIC) of the cyclic hexapeptides was tested against Gram-negative E. coli DH5α and Gram-positive B. subtilis DSM 347 using a microdilution technique in 96 well microtiter plates as described previously. Briefly, cells from an overnight culture were inoculated 1:100 in LB medium, grown to mid log phase (OD600 0.4 ± 0.1) and adjusted to 5 × 10^5 cells/well. Final peptide concentrations ranged from 0.05 µM to 100 µM (2-fold dilutions) and were tested in triplicates in at least three independent experiments. The MIC was determined after 18 h of incubation at 37 °C, 180 rpm being the lowest peptide concentration at which no visible bacterial growth can be detected photometrically (A600, Safire Microplate Reader, Tecan, Männedorf, Germany).

B. subtilis DSM 347 = type: cell-based; conditions: DSM 347, 18 h
Experimental: as §1

human erythrocytes = type: cell-based; conditions: pH 7.4
Experimental: The lytic effect of selected peptides upon human erythrocytes was determined as described before. Briefly, cells were washed thoroughly in Tris buffer (10 mM Tris, 150 mM NaCl, pH 7.4). Suspensions with 2.5 × 10^8 cells/mL were incubated with peptides at a final concentration of 100 µM for 30 min at 37 °C. After centrifugation, 0.6% NH4OH was added to an aliquot of the supernatant and hemoglobin absorption (A) was measured at 540 nm (Jasco V-550). Whole cell suspensions exposed to NH4OH were used as positive control (A100%) and preparations without peptide served as negative control (A0%), respectively. Data were collected in three independent experiments.

Retention Time tR [1]: 17.67 min
MIC E. coli DH5α (E. coli DH5α): 3 µM (≈ 2.96 µg/mL)
MIC B. subtilis DSM 347 (B. subtilis DSM 347): 3 µM (≈ 2.96 µg/mL)
Structure (SMILES): N=C(N)NCCC[C@@H]1NC(=O)[C@H](CCCNC(=N)N)NC(=O)[C@H](Cc2c[nH]c3ccccc23)NC(=O)[C@H](Cc2ccccc2)NC(=O)[C@H](Cc2c[nH]c3ccccc23)NC(=O)[C@H](CCCNC(=N)N)NC1=O [cWFW] (cyclo(FWRRRW); ring closure inferred)
Toxicity towards eukaryotic cells (eukaryotic cells): no toxicity towards eukaryotic cells could be detected
Hemolysis at 100 µM (human erythrocytes): 4%
